# Reference: PubChem BioAssay AID1794816
# Target: Solute carrier family 22 member 4 (Homo sapiens) (UniProt Q9H015)
# Assay: SLC22A4 substrate-evoked membrane depolarization, dose response, membrane potential dye, HEK-293 overexpressing cells (AID 1794816)
# Details: HEK-293 SLC22A4 OE, FLIPR membrane potential dye
# Chain of Solute carrier family 22 member 4 (Homo sapiens) (Q9H015 whole entry, looked up): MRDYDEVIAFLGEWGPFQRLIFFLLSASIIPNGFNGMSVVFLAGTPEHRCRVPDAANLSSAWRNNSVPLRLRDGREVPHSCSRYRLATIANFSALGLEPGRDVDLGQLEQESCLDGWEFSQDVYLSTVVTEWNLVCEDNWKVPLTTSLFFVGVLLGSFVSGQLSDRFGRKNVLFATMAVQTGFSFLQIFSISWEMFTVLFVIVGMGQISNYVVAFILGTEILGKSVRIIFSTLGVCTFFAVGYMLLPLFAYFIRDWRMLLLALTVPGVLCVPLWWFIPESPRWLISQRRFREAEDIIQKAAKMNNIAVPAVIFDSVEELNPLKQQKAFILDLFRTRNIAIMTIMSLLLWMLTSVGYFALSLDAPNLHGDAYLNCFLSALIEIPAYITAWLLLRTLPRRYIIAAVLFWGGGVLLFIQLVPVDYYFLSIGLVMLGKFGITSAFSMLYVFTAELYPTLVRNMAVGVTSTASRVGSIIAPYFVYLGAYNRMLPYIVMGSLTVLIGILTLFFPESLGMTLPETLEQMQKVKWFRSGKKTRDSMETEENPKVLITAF
smiles,measurement,value
C[N+](C)(C)[C@@H](Cc1c[nH]c(=S)[nH]1)C(=O)[O-],EC50,40 µM
